Measurements as given in ChEMBL document CHEMBL6153123, “Discovery of Potent and Brain-Penetrant Bicyclic NLRP3 Inhibitors with Peripheral and Central In Vivo Activity” (J Med Chem, 2025).

Key:
physchem = conditions: buffer, pH 7.4
in vitro = conditions: dog, MDCK-MDR1
in vivo = conditions: male, CD1, mouse, brain and plasma, po

## CN1C[C@H](Nc2nnc(-c3ccc(C(F)(F)F)cc3O)c3ccnn23)CC(F)(F)C1
physchem
  chromatographic logD: 3.85
In vitro
  Papp A→B: 13 ×10⁻⁶ cm/s

## Cc1cc(C(F)(F)F)cc(O)c1-c1nnc(N[C@@H]2CCCN(C)C2)n2nccc12
physchem
  chromatographic logD: 1.73
In vitro
  Papp A→B: 26 ×10⁻⁶ cm/s
In vivo
  Kp uu: 0.056
